Source: patent US12227496B2 (BRISTOL-MYERS SQUIBB COMPANY, priority 2019, dated 2025)

Molecular target: T1, human FXR (Homo sapiens, UniProt Q96RI1)
T1 construct: expressed in transfected cells; host or cells: HEK293 cells stably carrying a 5xGal4-response-element firefly luciferase reporter, transiently transfected with pcDNA3.1-Gal4-FXR
T1 sequence (Q96RI1 262-486 limits assumed): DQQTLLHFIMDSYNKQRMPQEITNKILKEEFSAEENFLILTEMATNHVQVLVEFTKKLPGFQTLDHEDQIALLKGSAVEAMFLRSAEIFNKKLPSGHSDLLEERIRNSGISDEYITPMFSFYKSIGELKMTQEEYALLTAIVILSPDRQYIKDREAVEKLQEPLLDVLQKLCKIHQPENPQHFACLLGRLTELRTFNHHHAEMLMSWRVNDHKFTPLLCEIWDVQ
Assay: transient human FXR/Gal4-luciferase reporter assay
Assay type: cell-based
Settings: Gal4-hFXR LBD fusion, luciferase reporter in HEK293 cells; response relative to 8 μM GW-4064
Outline: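 HEK293 cells stably carrying a 5×Gal4-response-element firefly luciferase reporter were transiently transfected with Gal4-hFXR. They were then incubated overnight at 37 °C with compound serial dilutions in medium containing 10% charcoal/dextran-stripped FBS. Luminescence was read after Steady-Glo addition.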

EC50 [nM]	SMILES
250	Cc1nc2ccc(-c3cc(N(CC45CCC(c6noc(C(C)(F)F)n6)(CC4)CC5)C(=O)C4CCC(F)(F)CC4)ccc3F)cc2s1 [Example 108, N-((4-(5-(1,1-difluoroethyl)-1,2,4-oxadiazol-3-yl)bicyclo[2.2.2]octan-1-yl)methyl)-4,4-difluoro-N-(4-fluoro-3-(2-methylbenzo[d]thiazol-6-yl)phenyl)cyclohexane-1-carboxamide]
50	CC(F)(F)c1nc(C23CCC(CN(C(=O)C4CCOCC4)c4cccc(-c5ccc(OC(F)F)cc5)c4)(CC2)CC3)no1 [Example 109, N-((4-(5-(1,1-difluoroethyl)-1,2,4-oxadiazol-3-yl)bicyclo[2.2.2]octan-1-yl)methyl)-N-(4′-(difluoromethoxy)-[1,1′-biphenyl]-3-yl)tetrahydro-2H-pyran-4-carboxamide]
467	CC(F)(F)c1nc(C23CCC(CN(C(=O)C4CCS(=O)(=O)CC4)c4cccc(-c5ccc(OC(F)F)cc5)c4)(CC2)CC3)no1 [Example 110, N-((4-(5-(1,1-difluoroethyl)-1,2,4-oxadiazol-3-yl)bicyclo[2.2.2]octan-1-yl)methyl)-N-(4′-(difluoromethoxy)-[1,1′-biphenyl]-3-yl)tetrahydro-2H-thiopyran-4-carboxamide 1,1-dioxide]
69	CC(F)(F)c1nc(C23CCC(CN(C(=O)C4CCC(F)(F)CC4)c4cccc(-c5ccc(OC(F)F)cc5)c4)(CC2)CC3)no1 [Example 111, N-((4-(5-(1,1-difluoroethyl)-1,2,4-oxadiazol-3-yl)bicyclo[2.2.2]octan-1-yl)methyl)-N-(4′-(difluoromethoxy)-[1,1′-biphenyl]-3-yl)-4,4-difluorocyclohexane-1-carboxamide]
142	CC(F)(F)c1nc(C23CCC(CN(C(=O)C4CCC(F)(F)CC4)c4cccc(-c5nc(C6CC6)no5)c4)(CC2)CC3)no1 [Example 112, N-(3-(3-cyclopropyl-1,2,4-oxadiazol-5-yl)phenyl)-N-((4-(5-(1,1-difluoroethyl)-1,2,4-oxadiazol-3-yl)bicyclo[2.2.2]octan-1-yl)methyl)-4,4-difluorocyclohexane-1-carboxamide]
665	CCOc1ccc(-c2cccc(N(CC34CCC(c5noc(C(C)(F)F)n5)(CC3)CC4)C(=O)C3CCC(F)(F)CC3)c2)cc1 [Example 113, N-((4-(5-(1,1-difluoroethyl)-1,2,4-oxadiazol-3-yl)bicyclo[2.2.2]octan-1-yl)methyl)-N-(4′-ethoxy-[1,1′-biphenyl]-3-yl)-4,4-difluorocyclohexane-1-carboxamide]
325	CC(C)(C)c1noc(C23CCC(CN(C(=O)C4CCC(F)(F)CC4)c4cc(F)cc(-c5nc(C6CC6)no5)c4)(CC2)CC3)n1 [Example 114, N-((4-(3-(tert-butyl)-1,2,4-oxadiazol-5-yl)bicyclo[2.2.2]octan-1-yl)methyl)-N-(3-(3-cyclopropyl-1,2,4-oxadiazol-5-yl)-5-fluorophenyl)-4,4-difluorocyclohexane-1-carboxamide]
83	CC(C)(C)c1noc(C23CCC(CN(C(=O)C4CCOCC4)c4cc(F)cc(-c5nc(C6CC6)no5)c4)(CC2)CC3)n1 [Example 115, N-((4-(3-(tert-butyl)-1,2,4-oxadiazol-5-yl)bicyclo[2.2.2]octan-1-yl)methyl)-N-(3-(3-cyclopropyl-1,2,4-oxadiazol-5-yl)-5-fluorophenyl)tetrahydro-2H-pyran-4-carboxamide]
61	CC(C)(C)c1nc(C23CCC(CN(C(=O)C4CCOCC4)c4cccc(-c5nc(C6CC6)no5)c4)(CC2)CC3)no1 [Example 116, N-((4-(5-(tert-butyl)-1,2,4-oxadiazol-3-yl)bicyclo[2.2.2]octan-1-yl)methyl)-N-(3-(3-cyclopropyl-1,2,4-oxadiazol-5-yl)phenyl)tetrahydro-2H-pyran-4-carboxamide]
729	CC(C)(C)c1nc(C23CCC(CN(C(=O)C4CCS(=O)(=O)CC4)c4cccc(-c5nc(C6CC6)no5)c4)(CC2)CC3)no1 [Example 117, N-((4-(5-(tert-butyl)-1,2,4-oxadiazol-3-yl)bicyclo[2.2.2]octan-1-yl)methyl)-N-(3-(3-cyclopropyl-1,2,4-oxadiazol-5-yl)phenyl)tetrahydro-2H-thiopyran-4-carboxamide 1,1-dioxide]
1950	CN1CCC(C(=O)N(CC23CCC(c4noc(C(C)(C)C)n4)(CC2)CC3)c2cccc(-c3nc(C4CC4)no3)c2)CC1 [Example 118, N-((4-(5-(tert-butyl)-1,2,4-oxadiazol-3-yl)bicyclo[2.2.2]octan-1-yl)methyl)-N-(3-(3-cyclopropyl-1,2,4-oxadiazol-5-yl)phenyl)-1-methylpiperidine-4-carboxamide]
290	O=C(C1CCC(F)(F)CC1)N(CC12CCC(c3noc(C(F)(F)F)n3)(CC1)CC2)c1cccc(-c2cnc(C3CC3)nc2)c1 [Example 119, N-(3-(2-cyclopropylpyrimidin-5-yl)phenyl)-4,4-difluoro-N-((4-(5-(trifluoromethyl)-1,2,4-oxadiazol-3-yl)bicyclo[2.2.2]octan-1-yl)methyl)cyclohexane-1-carboxamide]
2000	O=C(C1CCC(F)(F)CC1)N(CC12CCC(c3noc(C4CC(O)(C(F)(F)F)C4)n3)(CC1)CC2)c1cccc(-c2cnc(C3CC3)nc2)c1 (centres unmarked) [Example 120, N-(3-(2-cyclopropylpyrimidin-5-yl)phenyl)-4,4-difluoro-N-((4-(5-(3-hydroxy-3-(trifluoromethyl)cyclobutyl)-1,2,4-oxadiazol-3-yl)bicyclo[2.2.2]octan-1-yl)methyl)cyclohexane-1-carboxamide]
1320	CC(F)(F)c1nc(C23CCC(CN(C(=O)C4CCOCC4)c4ccc(F)c(-c5ccc(P(C)(C)=O)cc5)c4)(CC2)CC3)no1 [Example 122, N-((4-(5-(1,1-difluoroethyl)-1,2,4-oxadiazol-3-yl)bicyclo[2.2.2]octan-1-yl)methyl)-N-(4′-(dimethylphosphoryl)-6-fluoro-[1,1′-biphenyl]-3-yl)tetrahydro-2H-pyran-4-carboxamide]
280	CC(C)(C)c1nnc(C23CCC(CN(C(=O)C4CCC(F)(F)CC4)c4cccc(-c5nc(C6CC6)no5)c4)(CC2)CC3)o1 [Example 123, N-((4-(5-(tert-Butyl)-1,3,4-oxadiazol-2-yl)bicyclo[2.2.2]octan-1-yl)methyl)-N-(3-(3-cyclopropyl-1,2,4-oxadiazol-5-yl)phenyl)-4,4-difluorocyclohexane-1-carboxamide]
467	CC(C)(C)c1nnc(C23CCC(CN(C(=O)C4CCC(F)(F)CC4)c4cccc(-c5cc(C6CC6)on5)c4)(CC2)CC3)o1 [Example 124, N-((4-(5-(tert-Butyl)-1,3,4-oxadiazol-2-yl)bicyclo[2.2.2]octan-1-yl)methyl)-N-(3-(5-cyclopropylisoxazol-3-yl)phenyl)-4,4-difluorocyclohexane-1-carboxamide]
726	CCOc1ncc(-c2cccc(N(CC34CCC(c5nc(C(C)(C)C)no5)(CC3)CC4)C(=O)c3cc(Cl)cc(Cl)c3)c2)cn1 [Example 125, N-((4-(3-(tert-Butyl)-1,2,4-oxadiazol-5-yl)bicyclo[2.2.2]octan-1-yl)methyl)-3,5-dichloro-N-(3-(2-ethoxypyrimidin-5-yl)phenyl)benzamide]
4000	CC(C)(C)c1noc(C23CCC(CN(C(=O)C4CCC(F)(F)CC4)c4cccc(-c5cn[nH]c(=O)c5)c4)(CC2)CC3)n1 [Example 127, N-((4-(3-(tert-Butyl)-1,2,4-oxadiazol-5-yl)bicyclo[2.2.2]octan-1-yl)methyl)-4,4-difluoro-N-(3-(6-oxo-1,6-dihydropyridazin-4-yl)phenyl)cyclohexane-1-carboxamide]
4000	CC(C)(F)c1nc(C23CCC(CN(C(=O)C4CCOCC4)c4cccc(-c5cn[nH]c(=O)c5)c4)(CC2)CC3)no1 [Example 128, N-((4-(5-(2-fluoropropan-2-yl)-1,2,4-oxadiazol-3-yl)bicyclo[2.2.2]octan-1-yl)methyl)-N-(3-(6-oxo-1,6-dihydropyridazin-4-yl)phenyl)tetrahydro-2H-pyran-4-carboxamide]
1480	CC(F)(F)c1nc(C23CCC(CN(C(=O)C4CCOCC4)c4cccc(-c5cn[nH]c(=O)c5)c4)(CC2)CC3)no1 [Example 129, N-((4-(5-(1,1-difluoroethyl)-1,2,4-oxadiazol-3-yl)bicyclo[2.2.2]octan-1-yl)methyl)-N-(3-(6-oxo-1,6-dihydropyridazin-4-yl)phenyl)tetrahydro-2H-pyran-4-carboxamide]
205	CC(F)(F)c1nc(C23CCC(CN(C(=O)C4CCC(F)(F)CC4)c4cccc(-c5ccc(S(C)(=O)=O)cc5)c4)(CC2)CC3)no1 [Example 130, N-((4-(5-(1,1-difluoroethyl)-1,2,4-oxadiazol-3-yl)bicyclo[2.2.2]octan-1-yl)methyl)-4,4-difluoro-N-(4′-(methylsulfonyl)-[1,1′-biphenyl]-3-yl)cyclohexane-1-carboxamide]
1930	Cn1nc(C2CC2)cc1C12CCC(CN(C(=O)C3CCS(=O)(=O)CC3)c3cccc(-c4cc(C5CC5)on4)c3)(CC1)CC2 [Example 131, N-((4-(3-cyclopropyl-1-methyl-1H-pyrazol-5-yl)bicyclo[2.2.2]octan-1-yl)methyl)-N-(3-(5-cyclopropylisoxazol-3-yl)phenyl)tetrahydro-2H-thiopyran-4-carboxamide 1,1-dioxide]
227	Cn1nc(C2CC2)cc1C12CCC(CN(C(=O)C3CCOCC3)c3cccc(-c4cc(C5CC5)on4)c3)(CC1)CC2 [Example 132, N-((4-(3-cyclopropyl-1-methyl-1H-pyrazol-5-yl)bicyclo[2.2.2]octan-1-yl)methyl)-N-(3-(5-cyclopropylisoxazol-3-yl)phenyl)tetrahydro-2H-pyran-4-carboxamide]
